Laboratory results reported in patent publication US20210000988A1, “PHARMACEUTICAL COMPOSITION CONTAINING 211AT-LABELED AMINO ACID DERIVATIVE, AND METHOD FOR PRODUCING SAID PHARMACEUTICAL COMPOSITION” (OSAKA UNIVERSITY, priority 2018, published 2021).

What was measured:
[1] = tested on: human pancreatic cancer cell line (PANC-1); assay: Cellular uptake / accumulation in cancer cells (radiation dose remaining in the cells); type: cell-based
Protocol: A human pancreatic cancer cell line (PANC-1) was treated with ^211At-AAMT and cultured for a predetermined time. Then, the cells were washed to remove unincorporated ^211At-AAMT. The cellular uptake of ^211At-AAMT was measured from the radiation dose remaining in the cells.
Further, an effect of ascorbic acid on the cellular accumulation of ^211At-AAMT was also examined. The measurement result of the radiation dose in the human pancreatic cancer cell line in the absence and presence of ascorbic acid is shown in FIG. 5.

[2] = tested on: human pancreatic cancer cell line (PANC-1); assay: Cell-killing effect (cell survival rate); type: cell-based; details: PANC-1 cells
Description: 4. Examination of cell-killing effect of ^211At-AAMT A cell survival rate of the human pancreatic cancer cell line (PANC-1) administered with ^211At-AAMT under the same conditions as in Example 3 is shown in FIG. 6. […] On the other hand, the cellular uptake of ^211At-AAMT was reduced in the presence of the inhibitor BCH or methyltyrosine.

[3] = In vitro stability by thin-layer chromatography (TLC), with and without sodium ascorbate; type: physicochemical
Description: The stability of ^211At-AAMT synthesized in Example 1 was compared in the presence and absence of sodium ascorbate using thin-layer chromatography (TLC).

[4] = In vivo stability: TLC of blood and urine after intravenous injection in normal rats; details: ascorbic acid 1% final concentration, after one hour
Protocol: ^211At-AAMT to which ascorbic acid was added at a final concentration of 1% was intravenously injected in normal rats, and, after one hour, blood and urine were collected and analyzed by thin-layer chromatography (TLC). As a thin layer plate, silica gel G60F254 (Merck KGaA) was used, and, as a development solvent, a mixture of butanol:water:acetic acid (4:1:1) was used (Nacalai Tesque, Inc.). The thin layer plate after development was analyzed by using a bioimaging analysis apparatus (Typhoon 7000, GE Healthcare) (FIG. 2). […] That is, it was shown that ^211At-AAMT to which ascorbic acid was added could stably exist in the living body without being metabolized or degraded.

[5] = Effect of ascorbic acid on biodistribution in normal mice (organ radioactivity, gamma counter); type: in vivo, ddY mice; details: intravenous, one hour, 1% ascorbic acid addition group compared with ascorbic acid free group
Description: Next, an effect of ascorbic acid on biodistribution of ^211At-AAMT in the mouse body was compared. ddY mice (male, 5 weeks old) purchased from Japan SLC, Inc. were used after being acclimated for one week (6 weeks old at the time of experiment). ^211At-AAMT with 1% ascorbic acid or without ascorbic acid was intravenously injected in normal mice (N=3), and the mice were dissected after one hour. The organs were all put in polyethylene bags with zipper (A-4, 0.04 mm, SEISANNIPPONSHA Ltd.), and radioactivity of the organs was measured using Wizard^2 gamma counter (PerkinElmer).

[6] = tested on: human pancreatic cancer cell line (PANC-1); assay: Administration to cancer-bearing mouse (tumor size and body weight); type: in vivo; details: PANC-1 cancer-bearing mouse, intravenous, 0.6 MBq per mouse, 7 days after administration
Description: A cancer-bearing mouse created by using the human pancreatic cancer cell line (PANC-1) was intravenously administered with ^211At-AAMT at a dose of 0.6 MBq per mouse. A change in the tumor size caused by the administration is shown in FIG. 8(A), while a change in the body weight of the cancer-bearing mouse is shown in FIG. 8(B).

[7] = Image analysis of in vivo localization in the normal rat using a gamma camera
[8] = tested on: human pancreas cell line PANC-1; assay: SPECT imaging in pancreatic cancer (PANC-1) transplanted mice; type: in vivo, Balb/c-nu/nu mice; details: PANC-1 transplanted mice (two animals), intravenous, 1 MBq, with 1% ascorbic acid, after 10 minutes
Protocol: Balb/c-nu/nu mice (female, 5 weeks old) purchased from Japan SLC, Inc. were acclimated in a breeding space for one week. A human pancreas cell line PANC-1 (RIKEN cell bank), which was maintained in an RPMI 1640 medium (Sigma-Aldrich) supplemented with 10% fetal bovine serum (Gibco) and 1% antibiotics (100×, FUJIFILM Wako Pure Chemical Corp.), was adjusted to a concentration of 5×10^6 cells/100 μL. Subsequently, the cells were mixed with Matrigel (Growth Factor Reduced, BD) in a 1:1 ratio, and the mixture was transplanted to a subcutaneous region of the hinder back of a mouse using a syringe (FN syringe 27G, Terumo Corp.). Subsequently, after one-month follow-up observation, the mouse having a sufficiently large tumor size was used in the experiment. These pancreatic cancer transplanted mice (animal 1: 25.5 g, animal 2: 30.2 g) were intravenously injected with ^211At-AAMT (with 1% ascorbic acid, at a dose of 1 MBq each), and SPECT imaging was performed after 10 minutes. Imaging was performed using a gamma camera E-Cam (Siemens) (imaging time: 10 minutes, collimator: low energy all purpose, pixel size: 1.2 mm×1.2 mm, matrix: 256×256, zoom: 2-fold, energy window: 79±20%).

[9] = SPECT imaging in normal rats; type: in vivo, rats (Wister); details: intravenous, 1 MBq, without ascorbic acid, 20 minutes to 1 hour
Protocol: Normal rats (Wister, 3 months old, male, 3 animals, body weight of 289.8±5.5 g) were intravenously injected with ^211At-AAMT (without ascorbic acid, 1 MBq), and SPECT imaging was performed after from 20 minutes to 1 hour. Imaging was performed using a gamma camera E-Cam (Siemens) (imaging time: 20 minutes, collimator: low energy all purpose, pixel size: 2.4 mm×2.4 mm×2.4 mm (SPECT), matrix: 128×128).

[10] = tested on: Melanoma cells B16F10; assay: Treatment effect on melanoma metastasis to lung (nodule count and body weight); type: in vivo, C57BL/6 mice; details: B16F10 transplanted mice, intravenous
Description: C57BL/6 mice (female, 5 weeks old) purchased from Japan SLC, Inc. were used in the experiment after being acclimated in a breeding space for one week. Melanoma cells B16F10 (a high lung-metastatic cell line cloned from B16, RIKEN cell bank) were maintained in a D-MEM medium (high glucose, Sigma-Aldrich) supplemented with 10% fetal bovine serum (Gibco) and 1% antibiotics (100×, FUJIFILM Wako Pure Chemical Corp.). These cells in an amount of 2×10^5 cells were intravenously transplanted in each mouse. On the following day, the mice (N=5) was intravenously injected with ^211At-AAMT (with 1% ascorbic acid) at a dose of 0.0 MBq (control group), 0.1 MBq, or 1 MBq. Fourteen days later, the mice were dissected, and the number of nodules spread to the lung was visually counted. The results of the number of the nodules and a change in the body weight thus obtained were shown in FIG. 11 and FIG. 12, respectively.

SMILES: NC1(C(=O)O)CC2CCC1C2 (centres unmarked) [BCH, 2-aminobicyclo[2.2.1]heptane-2-carboxylic acid, reference compound]
- uptake of ^211At-AAMT under competition with the inhibitor ([1]; PANC-1 cells, competitor added (Comparative example)): reduced
- cell survival rate with ^211At-AAMT in the presence of the inhibitor ([2]; competitor present): a significant reduction in the cell survival rate was not observed

SMILES: CC(N)(Cc1ccc(O)c([211At])c1)C(=O)O (centres unmarked) [^211At-AAMT]
- time in which almost all of the compound was degraded ([3]; in the absence of sodium ascorbate): about 40 minutes
- stability over time ([3]; in the presence of sodium ascorbate): could stably exist even after the lapse of seven or more hours
- radioactive species detected in blood and urine [4]: only ^211At-AAMT was detected in both the blood and the urine, but free ^211At was not observed
- accumulation in the stomach and the kidney [5]: significantly reduced
- time at which uptake reached the maximum value ([1]; PANC-1 cells): about 10 minutes
- increase of cellular uptake in the cancer cells by addition of ascorbic acid ([1]; PANC-1 cells, with versus without ascorbic acid): increased about four times
- accumulation in PANC-1 on addition of ascorbic acid ([1]; ascorbic acid 0.1% versus absence): significantly increased
- cell-killing effect (cell survival rate) ([2]; same conditions as Example 3): nearly all of the cancer cells could be killed
- cancer cell-killing activity on addition of ascorbic acid ([2]; with versus without ascorbic acid): increased
- change in body weight [6]: a substantial reduction of the body weight was not observed
- change in tumor size [6]: a regression effect of the tumor was obtained
- excretion [7]: quick excretion of ^211At-AAMT by the kidney
- in vivo localization of radioactivity [7]: accumulation of the radioactivity was observed in the kidney and its surrounding organs
- visualization of the thyroid (SPECT) [8]: the thyroid was not visualized
- visualization of the tumor (SPECT) [8]: the tumors were clearly visualized in both cases
- accumulation of radioactivity (SPECT) [9]: accumulation of the radioactivity was observed in the thyroid and the stomach in all animals
- body weight change ([10]; 0.1 MBq or 1 MBq with 1% ascorbic acid versus control group): no difference in the body weight change
- number of melanoma nodules in the lung ([10]; 0.1 MBq or 1 MBq with 1% ascorbic acid versus control, fourteen days later): decreased more in the group with more doses
